In PubChem BioAssay AID330 (DTP/NCI, 2004):
“And” between values parts separate entries of the source, which are not always exact repeats. Equal entries are not always repeated. Inconclusive results and toxic doses are left out.

Test system: P388 leukemia ip, CD2F1 mice, survival T/C
Experiment: NCI In Vivo Anticancer Drug Screen. Data for tumor model P388 Leukemia (intraperitoneal) in CD2F1 (CDF1) mice
Details: endpoint: median survival time, higher = longer survival
Outline: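 Mice carrying the transplanted tumor received test compound or vehicle. Survival was recorded in each group, and the value is the treated-group measurement divided by that of the vehicle-treated control group.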

[1] = dose: 100.0 mg/kg/injection, schedule: Q01DX001 (ip), vehicle: Klucel (hydroxypropylcellulose) (HPC)
[2] = dose: 50.0 mg/kg/injection, schedule: Q01DX009 (ip), vehicle: saline with Tween-80
[3] = dose: 100.0 mg/kg/injection, schedule: Q01DX009 (ip), vehicle: saline with Tween-80
[4] = dose: 200.0 mg/kg/injection, schedule: Q01DX009 (ip), vehicle: saline with Tween-80
[5] = dose: 12.5 mg/kg/injection, schedule: Q01DX009 (ip), vehicle: Klucel (hydroxypropylcellulose) (HPC)
[6] = dose: 25.0 mg/kg/injection, schedule: Q01DX009 (ip), vehicle: Klucel (hydroxypropylcellulose) (HPC)
[7] = dose: 50.0 mg/kg/injection, schedule: Q01DX009 (ip), vehicle: Klucel (hydroxypropylcellulose) (HPC)
[8] = dose: 100.0 mg/kg/injection, schedule: Q01DX009 (ip), vehicle: Klucel (hydroxypropylcellulose) (HPC)
[9] = dose: 50.0 mg/kg/injection, schedule: Q01DX009 (ip), vehicle: saline
[10] = dose: 100.0 mg/kg/injection, schedule: Q01DX009 (ip), vehicle: saline
[11] = dose: 200.0 mg/kg/injection, schedule: Q01DX009 (ip), vehicle: Klucel (hydroxypropylcellulose) (HPC)

## CCc1nnc2c(c(=O)n(C)c(=O)n2C)[n+]1[O-]
dose: 20.0 mg/kg/injection, schedule: Q01DX001 (ip), vehicle: Klucel (hydroxypropylcellulose) (HPC)
  T/C: 106 % of control
dose: 40.0 mg/kg/injection, schedule: Q01DX001 (ip), vehicle: Klucel (hydroxypropylcellulose) (HPC)
  T/C: 106 % of control
dose: 80.0 mg/kg/injection, schedule: Q01DX001 (ip), vehicle: Klucel (hydroxypropylcellulose) (HPC)
  T/C: 112 % of control
[1]
  T/C: 109 % of control

## CC(C)(C)N=C(CCN1CCN(c2ccccc2)CC1)Nc1ccccc1Cl
[2]
  T/C: 109 % of control
[3]
  T/C: 108 % of control
[4]
  T/C: 100 % of control

## CC#CC#C/C(=C/C=CC(=O)OC)SC
[5]
  T/C: 110 % of control
[6]
  T/C: 106 % of control
[7]
  T/C: 101 % of control
[8]
  T/C: 104 % of control

## O=C(O)CNC(CO)(CO)CO
dose: 60.0 mg/kg/injection, schedule: Q01DX005 (ip), vehicle: saline
  T/C: 102 % of control
dose: 120.0 mg/kg/injection, schedule: Q01DX005 (ip), vehicle: saline
  T/C: 100 % of control
dose: 240.0 mg/kg/injection, schedule: Q01DX005 (ip), vehicle: saline
  T/C: 97 % of control

## COc1ccc(/C=C2/Oc3c(OC)c(OC)cc(OC)c3C2=O)cc1
dose: 50.0 mg/kg/injection, schedule: Q01DX005 (ip), vehicle: saline with Tween-80
  T/C: 102 % of control
dose: 100.0 mg/kg/injection, schedule: Q01DX005 (ip), vehicle: saline with Tween-80
  T/C: 98 % of control
dose: 200.0 mg/kg/injection, schedule: Q01DX005 (ip), vehicle: saline with Tween-80
  T/C: 98 % of control

## O=C(C[n+]1ccc2ccccc2c1)c1ccc(-c2ccccc2)cc1
[5]
  T/C: 118 % of control
[6]
  T/C: 98 % of control and 116 % of control
[7]
  T/C: 101 % of control and 115 % of control
[8]
  T/C: 101 % of control and 122 % of control

## O=C(Nc1ccc2[nH]c3ccccc3c2c1)c1ccccc1Cl
dose: 50.0 mg/kg/injection, schedule: Q01DX005 (ip), vehicle: Klucel (hydroxypropylcellulose) (HPC)
  T/C: 93 % of control
dose: 100.0 mg/kg/injection, schedule: Q01DX005 (ip), vehicle: Klucel (hydroxypropylcellulose) (HPC)
  T/C: 95 % of control
dose: 200.0 mg/kg/injection, schedule: Q01DX005 (ip), vehicle: Klucel (hydroxypropylcellulose) (HPC)
  T/C: 90 % of control

## CC(=O)OC1C(C)OC(OC(=O)C2CCC3C(C2)OC2(CC(OC(=O)/C=C/c4ccccc4)C(C)CO2)C32CO2)C(OC2OC(C)C(O)C(OC(C)=O)C2O)C1O (configuration not stated)
dose: 0.62 mg/kg/injection, schedule: Q01DX009 (ip), vehicle: saline + alcohol
  T/C: 97 % of control
dose: 0.75 mg/kg/injection, schedule: Q01DX005 (ip), vehicle: saline + alcohol
  T/C: 97 % of control
dose: 1.25 mg/kg/injection, schedule: Q01DX009 (ip), vehicle: saline + alcohol
  T/C: 105 % of control
dose: 1.5 mg/kg/injection, schedule: Q01DX005 (ip), vehicle: saline + alcohol
  T/C: 106 % of control
dose: 1.67 mg/kg/injection, schedule: Q01DX009 (ip), vehicle: saline + alcohol
  T/C: 113 % of control
dose: 1.75 mg/kg/injection, schedule: Q01DX009 (ip), vehicle: saline + alcohol
  T/C: 104 % of control
dose: 2.5 mg/kg/injection, schedule: Q01DX009 (ip), vehicle: saline + alcohol
  T/C: 105 % of control
dose: 3.0 mg/kg/injection, schedule: Q01DX005 (ip), vehicle: saline + alcohol
  T/C: 114 % of control
dose: 3.5 mg/kg/injection, schedule: Q01DX009 (ip), vehicle: saline + alcohol
  T/C: 108 % of control
dose: 5.0 mg/kg/injection, schedule: Q01DX009 (ip), vehicle: saline + alcohol
  T/C: 106 % of control
dose: 6.0 mg/kg/injection, schedule: Q01DX005 (ip), vehicle: saline + alcohol
  T/C: 115 % of control
dose: 6.68 mg/kg/injection, schedule: Q01DX009 (ip), vehicle: saline + alcohol
  T/C: 152 % of control
dose: 7.0 mg/kg/injection, schedule: Q01DX009 (ip), vehicle: saline + alcohol
  T/C: 110 % of control
dose: 13.35 mg/kg/injection, schedule: Q01DX009 (ip), vehicle: saline + alcohol
  T/C: 111 % of control
dose: 14.0 mg/kg/injection, schedule: Q01DX009 (ip), vehicle: saline + alcohol
  T/C: 118 % of control

## COc1ccc(/C=N\O)cc1OC
dose: 100.0 mg/kg/injection, schedule: Q04DX003 (ip), vehicle: saline with Tween-80
  T/C: 100 % of control
dose: 200.0 mg/kg/injection, schedule: Q04DX003 (ip), vehicle: saline with Tween-80
  T/C: 100 % of control
dose: 400.0 mg/kg/injection, schedule: Q04DX003 (ip), vehicle: saline with Tween-80
  T/C: 100 % of control

## CCOC(=O)C1Cc2c([nH]c(=O)[nH]c2=O)OC1c1cccc(Cl)c1 (configuration not stated)
dose: 3.12 mg/kg/injection, schedule: Q01DX009 (ip), vehicle: saline with Tween-80
  T/C: 94 % of control
dose: 6.25 mg/kg/injection, schedule: Q01DX009 (ip), vehicle: saline with Tween-80
  T/C: 93 % of control
dose: 12.5 mg/kg/injection, schedule: Q01DX009 (ip), vehicle: saline with Tween-80
  T/C: 96 % of control
dose: 25.0 mg/kg/injection, schedule: Q01DX009 (ip), vehicle: saline with Tween-80
  T/C: 100 % of control

## CCOC(=O)C1=C(C)Oc2cc3c(cc2C1c1ccc(OC)cc1)OCO3 (configuration not stated)
dose: 60.0 mg/kg/injection, schedule: Q01DX005 (ip), vehicle: saline with Tween-80
  T/C: 105 % of control
dose: 120.0 mg/kg/injection, schedule: Q01DX005 (ip), vehicle: saline with Tween-80
  T/C: 105 % of control
dose: 240.0 mg/kg/injection, schedule: Q01DX005 (ip), vehicle: saline with Tween-80
  T/C: 94 % of control

## N#CCCCCCBr
[2]
  T/C: 98 % of control
[3]
  T/C: 100 % of control
[4]
  T/C: 100 % of control

## CCCNC(=S)NN1C2CSC1CS2
[9]
  T/C: 89 % of control
[10]
  T/C: 99 % of control

## CS(=O)(=O)/C=C/c1ccc[nH]1
[7]
  T/C: 98 % of control
[8]
  T/C: 99 % of control
[11]
  T/C: 99 % of control

## CC(O)c1nc2ncc(Br)cc2[nH]1 (configuration not stated)
dose: 100.0 mg/kg/injection, schedule: Q01DX001 (ip), vehicle: saline with Tween-80
  T/C: 93 % of control
dose: 200.0 mg/kg/injection, schedule: Q01DX001 (ip), vehicle: saline with Tween-80
  T/C: 99 % of control
dose: 400.0 mg/kg/injection, schedule: Q01DX001 (ip), vehicle: saline with Tween-80
  T/C: 101 % of control

## COC(=O)C(Cc1cnc2nc(N)nc(N)c2n1)C(=O)OC
dose: 25.0 mg/kg/injection, schedule: Q01DX009 (ip), vehicle: distilled water + Tween-80
  T/C: 104 % of control
dose: 50.0 mg/kg/injection, schedule: Q01DX009 (ip), vehicle: distilled water + Tween-80
  T/C: 104 % of control
dose: 100.0 mg/kg/injection, schedule: Q01DX009 (ip), vehicle: distilled water + Tween-80
  T/C: 122 % of control

## CCCCCCCCCCCCCCCC[N+](C)(C)CCSc1ccccc1
dose: 1.56 mg/kg/injection, schedule: Q01DX009 (ip), vehicle: distilled water + alcohol
  T/C: 107 % of control and 108 % of control and 111 % of control
dose: 3.12 mg/kg/injection, schedule: Q01DX009 (ip), vehicle: distilled water + alcohol
  T/C: 110 % of control (2×) and 122 % of control
dose: 12.5 mg/kg/injection, schedule: Q01DX009 (ip), vehicle: distilled water + alcohol
  T/C: 98 % of control

## NC(=O)c1nc2c(Nc3ccccc3Br)nc(N)nc2nc1N
dose: 100.0 mg/kg/injection, schedule: Q01DX001 (ip), vehicle: saline
  T/C: 104 % of control
dose: 200.0 mg/kg/injection, schedule: Q01DX001 (ip), vehicle: saline
  T/C: 101 % of control
dose: 400.0 mg/kg/injection, schedule: Q01DX001 (ip), vehicle: saline
  T/C: 97 % of control

## Cc1ncc([N+](=O)[O-])n1CCOC(N)=O
[7]
  T/C: 100 % of control
[8]
  T/C: 99 % of control
[11]
  T/C: 99 % of control

## CC1=C(/C=C/c2ccc(N(C)C)cc2)C(C)C(c2ccc(N(C)C)cc2)CC1=O (configuration not stated)
dose: 25.0 mg/kg/injection, schedule: Q01DX001 (ip), vehicle: Klucel (hydroxypropylcellulose) (HPC)
  T/C: 88 % of control
dose: 50.0 mg/kg/injection, schedule: Q01DX001 (ip), vehicle: Klucel (hydroxypropylcellulose) (HPC)
  T/C: 94 % of control
[1]
  T/C: 93 % of control

## C=CC[n+]1cc2c3ccccc3c(N)cc2c2ccccc21
dose: 1.56 mg/kg/injection, schedule: Q04DX003 (ip), vehicle: water
  T/C: 107 % of control
dose: 3.13 mg/kg/injection, schedule: Q04DX003 (ip), vehicle: water
  T/C: 116 % of control
dose: 6.25 mg/kg/injection, schedule: Q04DX003 (ip), vehicle: water
  T/C: 114 % of control
dose: 12.5 mg/kg/injection, schedule: Q04DX003 (ip), vehicle: other
  T/C: 106 % of control
dose: 12.5 mg/kg/injection, schedule: Q04DX003 (ip), vehicle: water
  T/C: 109 % of control

## CCOC(=O)C/C(C)=N\N(C)C(N)=O
[9]
  T/C: 91 % of control
[10]
  T/C: 94 % of control
